Consider six compounds from patent US20110100371A1, “ANTI-VIRAL PROPERTIES OF ZOSTERIC ACID AND RELATED MOLECULES” (FLORIDA GULF COAST UNIVERSITY, priority 2007, published 2011).

Each structure is given as a SMILES string. Entries after “also recorded” stand apart in the source; their conditions may differ. Like-named read-outs stand apart in the source and are kept apart here.

For one assay, the system named is DENV-4 strain H-42. In words: Focus forming unit (FFU) reduction assay, DENV-4. Type of assay: cell-based. The note with it: Dengue virus, DENV4, LLC-MK2; DENV-4 (D-4), LLCMK-2 target cells; read-out: IC50 μM ± sem. As to the method:
(§1) DENV-1 strain HI-1, DENV-2 strain NG-2, DENV-3 strain H-78, and DENV-4 strain H-42 were obtained from R. Tesh at the World Health Organization Arbovirus Reference Laboratory at the University of Texas at Galveston. Viruses were propagated in the […] kidney epithelial cell line, LLCMK-2, a gift of K. Olsen at Colorado State University. LLCMK-2 cells were grown in Dulbecco's modified eagle medium (DMEM) with 10% (v/v) fetal bovine serum (FBS), 2 mM Glutamax, 100 U/ml penicillin G, 100 μg/ml streptomycin and 0.25 μg/ml amphotericin B, at 37° C. with 5% (v/v) CO2.
(§2) LLCMK-2 target cells were seeded at a density of 1×10^5 cells in each well of a 6-well plate 24 h prior to infection. Approximately 200 FFU of virus were incubated with or without chemistries in serum-free DMEM for 1 h at rt. […] Virus foci were detected using supernatant from mouse anti-DENV hybridoma E60 (obtained from M. Diamond at Washington University) followed by horseradish peroxidase-conjugated goat anti-mouse immunoglobulin (Pierce, Rockford, Ill.) and developed using AEC chromogen substrate (Dako, Carpinteria, Calif.). Results were expressed as the average of at least two independent trials with three replicates in each trial.

Assay [1] relates to DENV-2. The assay is described as follows: Post-binding focus-forming assay. The assay is classed as cell-based, dengue virus. The note with it: DENV-2 bound at 4° C., then chemistry added 1 h at 4° C. On the procedure:
To determine if the observed inhibitory effect was due to interference with interactions that occur pre-binding versus post-binding of virions to the target cells, approximately 200 FFU of DENV-2 was allowed to bind to target LLCMK-2 cells for 1 h at 4° C. to allow binding, but prevent internalization. Unbound virus was washed off with PBS at 4° C., then CF 238 was added and incubated at 4° C. for 1 h. Cultures were washed again in 4° C. PBS and warmed to 37° C. Agarose overlays, incubation, and immunological detection were conducted as described for the focus forming assay.

The subject of the next assay is DENV-2 strain NG-2. The assay is described as follows: Focus forming unit (FFU) reduction assay, DENV-2. The assay is classed as cell-based, dengue virus. On the procedure:
as §1
LLCMK-2 target cells were seeded at a density of 1×10^5 cells in each well of a 6-well plate 24 h prior to infection. Approximately 200 FFU of virus were incubated with or without chemistries in serum-free DMEM for 1 h at rt. Virus/chemistry or virus/control mixtures were allowed to infect confluent target cell monolayers for 1 h at 37° C., with rocking every 15 m, after which time the medium was aspirated and overlaid with fresh DMEM/10% (v/v) FBS containing 0.85% (w/v) Sea-Plaque Agarose (Cambrex Bio Science, Rockland, Me.). Cells with agar overlays were incubated at 4° C. for 20 m to set the agar. Infected cells were then incubated at 37° C. with 5% CO2 for 3 days (DENV-1, 3 and 4) or 5 days (DENV-2). Infected cultures were fixed with 10% formalin overnight at 4° C., permeabilized with 70% (v/v) ethanol for 20 m, and rinsed with PBS prior to immunostaining. Virus foci were detected using supernatant from mouse anti-DENV hybridoma E60 (obtained from M. Diamond at Washington University) followed by horseradish peroxidase-conjugated goat anti-mouse immunoglobulin (Pierce, Rockford, Ill.) and developed using AEC chromogen substrate (Dako, Carpinteria, Calif.). Results were expressed as the average of at least two independent trials with three replicates in each trial.

Assay [2] deals with DENV-2. The assay is described as follows: Post-entry focus-forming assay. The note with it: DENV-2, chemistry added post-entry 1 hr at 37° C. Type of assay: cell-based, dengue virus. On the procedure:
To determine if the observed inhibitory effect was due to interference with post-entry steps in the viral life cycle, approximately 200 FFU of DENV-2 without CF 238 was allowed to bind and enter target cells for 1 h at 37° C. as described for the focus forming assay. Unbound virus was then removed by rinsing with PBS and CF 238 was added to the cells post-entry for 1 hr at 37° C. Cultures were washed again in PBS and agarose overlays, incubation, and immunological detection was conducted as described for the focus forming assay.

The next assay relates to DENV-1,2,3 and 4. The assay is described as follows: Focus forming unit (FFU) reduction assay, several dengue strains stated together. Type of assay: cell-based. Particulars: Dengue virus. On the procedure:
as §1, §2

In assay [3] the test system is DENV-2. In words: Pre-binding focus-forming assay. The assay is classed as cell-based, dengue virus. Particulars: DENV-2, chemistry incubated with target cells 1 h at 4° C., rinsed before infection. As to the method: To determine if the observed inhibitory effect was due to interference caused by modifications to the target cell surface, CF 238 was incubated with the target cells for 1 h at 4° C., the cells were rinsed with PBS, and approximately 200 FFU of DENV-2 was allowed to infect the cells at 4° C. Agarose overlays, incubation, and immunological detection were conducted as described for the focus forming assay.

In the next assay the test system is DENV-3 strain H-78. The assay is described as follows: Focus forming unit (FFU) reduction assay, DENV-3. Type of assay: cell-based. The note with it: Dengue virus, DENV3, LLC-MK2; DENV-3 (D-3), LLCMK-2 target cells; read-out: IC50 μM ± sem. On the procedure:
as §1, §2

In another assay the test system is DENV-1 strain HI-1. In words: Focus forming unit (FFU) reduction assay, DENV-1. Type of assay: cell-based. Particulars: Dengue virus, DENV1, LLC-MK2; DENV-1 (D-1), LLCMK-2 target cells; read-out: IC50 μM ± sem. On the procedure: as §1, §2
In assay [4] the test system is DENV-2. In words: qRT-PCR virus binding assay. Type of assay: cell-based, dengue virus. The note with it: DENV-2 pre-incubated 45 m at 4° C., infection of LLCMK-2 45 m at 4° C. As to the method: Infection of LLCMK-2 target cells in six well plates was performed in duplicate using 10^5 FFU of DENV-2 that had been pre-incubated for 45 m at 4° C. with CF 238 or pooled heterotypic anti-DENY human serum. After a 45 m infection at 4° C., infected monolayers were washed with PBS and harvested with a cell scraper, added to a 1.5 ml microfuge tube containing 350 μl of AR-200 silicone oil (Sigma-Aldrich, St. Louis, Mo.) mixed with 150 μl of silicone fluid (Thomas, Swedesboro, N.J.), and spun at 14,000 rpm in a microfuge for 1 m to separate the unbound virus from the cell-bound virus in the pellets. The tubes were then submerged in liquid nitrogen for 30 s to freeze the contents. The cell pellets with bound virus were recovered by clipping off the bottoms of the tubes with small wire clippers into 15 ml conical tubes. Viral RNA was extracted from the cell pellets using the Qiagen Viral RNA Extraction kit (Qiagen, Chatsworth, Calif.).
Quantitative real time reverse transcription PCR (qRT-PCR) was performed on the extracted RNA using the Quantitect Sybr Green RT-PCR kit (Qiagen inc., Chatsworth, Calif.), following the manufacturer's specifications and amplification protocols, using dengue-specific primers: (Den2F: […], Den2R: […]). […]

[5] abbreviates: Dengue virus, DENV2, LLC-MK2, read-out: IC50 μM ± sem.
Where [6] appears, read: Dengue virus, DENV2, read-out: maximum inhibition.
Where [7] appears, read: Dengue virus, DENV2, DENV-2, rounded statement in text, read-out: IC50 (approximate).

Usually IC50 stands for the concentration that gives 50% inhibition. A word on the inhibition: it is the drop in the measured response relative to a control, in per cent. Consider `CCN(CCOC(=O)/C=C/c1ccc(O)cc1)Cc1cc(Cl)ccc1O` [CF 238], for which the IC50 in the assay with DENV-4 strain H-42 was 47 ± 5 µM; with DENV-2 strain NG-2 (setting [5]), 46 ± 4 µM; in the assay on DENV-1,2,3 and 4 (DENV1, range over DENV-1, 3 and 4, read-out: IC50 against the other three DENV types), 14 to 47 µM; in the assay with DENV-3 strain H-78, 14 ± 2 µM; in the assay with DENV-1 strain HI-1 it was 24 ± 6 µM. Besides, the “inhibition of virus already bound to target cells” value with DENV-2 [1] is given as “No inhibition of infection was observed”. Besides, the inhibition at 84 µM in the assay on DENV-2 strain NG-2 (Dengue virus, DENV2, AT84) was 86%; in the assay with DENV-1,2,3 and 4 (DENV1, AT84, all dengue strains, at 84 μM), 86 to 100%. Also, the “activity relative to zosteric acid” value in the assay with DENV-2 strain NG-2 (anti-DENV inhibitory activity compared with the natural product) is on record as around 100 times. The “inhibition when added after viral entry” value in the assay with DENV-2 [2] is listed as “no evidence of inhibition”. In addition, the “inhibition when target cells treated prior to infection” value with DENV-2 [3] was “no evidence of inhibition; also recorded: does not inhibit virus infection when pre-incubated with target cells”. Also, the “virus binding/attachment to target cells (qRT-PCR signal)” value in the assay on DENV-2 [4] is recorded as “did not inhibit virus binding; also recorded: enhances virus:cell binding”.

`CN(CCCNC(=O)c1ccc(O)cc1)CCCNC(=O)c1ccc2cc(O)ccc2c1` [CF 290]: the IC50 with DENV-2 strain NG-2 (setting [5]) was determined as 294 ± 42 µM. Moreover, the inhibition at 367 µM in the assay on DENV-2 strain NG-2 (setting [6]) worked out at 60%.

As for `O=C(c1ccc(O)cc1)N1CCCN(C(=O)c2ccc3cc(O)ccc3c2)CC1` [CF 296], the “dose-dependent inhibition against DENV-2” value with DENV-2 strain NG-2 (DENV-2, result in words) is recorded as “did not show evidence of clear dose-dependent inhibition”.

Regarding `O=C(O)/C=C/c1ccc(OS(=O)(=O)O)cc1` [ZA, p-sulfoxy-cinnamic acid], in the assay on DENV-2 strain NG-2 (Dengue virus, DENV2), the inhibition at 5000 µM stood at 99%. The values for the IC50 in the assay with DENV-2 strain NG-2 (setting [5]) and in the assay on DENV-2 strain NG-2 (setting [7]) were 2380 µM and around 2000 µM, respectively.

For the compound `CN(CCCNC(=O)c1ccc(O)cc1)CCCNC(=O)c1ccc(O)cc1` [CF 285], the IC50 is 2520 µM in the assay with DENV-2 strain NG-2 (setting [5]) and around 2000 µM in the assay with DENV-2 strain NG-2 (setting [7]). The inhibition at 3000 µM in the assay on DENV-2 strain NG-2 (setting [6]) worked out at 63%.

Regarding `CCN(CCCN(CC)C(=O)c1cccc(O)c1)C(=O)c1cccc(O)c1` [CF 490], the IC50 was 2380 µM in the assay on DENV-2 strain NG-2 (setting [5]) and around 2000 µM with DENV-2 strain NG-2 (setting [7]). Moreover, in the assay with DENV-2 strain NG-2 (setting [6]), the inhibition at 3000 µM was found to be 84%.
